Laboratory results published in patent US20200054563A1, “PHARMACEUTICAL COMPOSITION FOR IN VIVO DELIVERY, METHOD OF PREPARATION OF A SUBSTANTIALLY WATER-INSOLUBLE PHARMACOLOGICALLY ACTIVE AGENT FOR IN VIVO DELIVERY, AND METHOD OF TREATING DISEASE” (ZY Therapeutics Inc., priority 2017, published 2020).

Assay: Stability of the drug substance during the homogenization process (HPLC spectra)
Type: physicochemical
Settings: nanosuspension prepared at pH 7.2 without pH change; additional peak in HPLC spectra (FIG. 2C), in some cases
Method: The formulation was filtered through a 0.22 μm membrane for sterilization. The Paclitaxel content before and after filtration was measured by HPLC. […] The split peak in HPLC may indicate the degradation of the drug during the process.

For `CC(=O)O[C@H]1C(=O)[C@@]2(C)[C@H]([C@H](OC(=O)c3ccccc3)[C@]3(O)C[C@H](OC(=O)[C@H](O)[C@@H](NC(=O)c4ccccc4)c4ccccc4)C(C)=C1C3(C)C)[C@]1(OC(C)=O)CO[C@@H]1C[C@@H]2O` [Paclitaxel], the “stability of the drug substance during the process” value was “not stable during the process”.
